# Measured values reported in US20240374546A1, “USES AND METHODS FOR PROMOTING INCREASED MITOCHONDRIAL MASS AND FUNCTION” (Brightseed, Inc., priority 2022, published 2024).
# How the values were obtained:
# [1] = molecular target: T1, HNF4α (Homo sapiens, UniProt P41235); settings: cited from earlier work
# T1 sequence (P41235 1-474): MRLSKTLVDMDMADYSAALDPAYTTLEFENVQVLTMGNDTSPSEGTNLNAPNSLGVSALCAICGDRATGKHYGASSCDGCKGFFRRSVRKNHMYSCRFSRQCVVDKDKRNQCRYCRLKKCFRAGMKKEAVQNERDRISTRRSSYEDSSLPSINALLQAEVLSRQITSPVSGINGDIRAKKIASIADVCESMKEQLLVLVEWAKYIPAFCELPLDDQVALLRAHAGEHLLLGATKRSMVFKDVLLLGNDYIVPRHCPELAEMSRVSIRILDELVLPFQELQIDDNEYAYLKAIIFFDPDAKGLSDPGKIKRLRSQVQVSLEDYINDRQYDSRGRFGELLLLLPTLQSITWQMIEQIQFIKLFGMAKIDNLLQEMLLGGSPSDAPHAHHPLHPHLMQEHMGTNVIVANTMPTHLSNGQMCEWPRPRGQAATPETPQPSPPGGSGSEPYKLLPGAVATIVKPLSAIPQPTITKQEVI
# [2] = tested on: palmitate-loaded cells; assay: Fat clearance from palmitate-loaded cells; type: cell-based; settings: in vitro
# [3] = molecular target: T1, HNF4α; assay: Cell-based human insulin promoter reporter assay sensitive to HNF4α activity
# From the text: HNF4α is a nuclear receptor transcription factor that controls the expression of downstream genes that are important in multiple aspects of cellular metabolism. The classical view of HNF4α has been that its ligand binding pocket (LBP) is constitutively occupied by a fatty acid that plays a structural rather than regulatory role. However, it has been shown recently that the fatty acids in the HNF4α LBP are exchangeable in the context of full length HNF4α, particularly inside the cell. […] Using the assay in high-throughput screening, it was discovered HNF4α antagonists and more recently agonists. […] Previously, it was shown that intraperitoneal (IP) administration of NCT reversed hepatic steatosis in obese mice fed a high fat diet through a previously unsuspected pathway involving regulation by HNF4α of dihydroceramide synthesis.
HNF4α agonist activity [3],Compound,HNF4α activator activity of known drugs [1],fat clearance from palmitate-loaded cells [2]
,CC(Cc1cccc(C(F)(F)F)c1)NCCOC(=O)c1ccccc1 (stereo not shown) [benfluorex],weak HNF4α activators,
,CCN(CCCc1ccccc1)CCCc1ccccc1 [alverine],weak HNF4α activators,
strong HNF4α agonists,"COc1cc(/C=C/C(=O)NCCc2ccc(O)cc2)ccc1O [NFT, N-transferuloyltyramine]",,induced fat clearance
